Data reported in patent US20260256751A1, “COMBINATION OF BETA-2-ADRENERGIC RECEPTOR AGONISTS AND GLP-1 RECEPTOR AGONISTS FOR USE IN TREATING HYPERGLYCAEMIA” (ATROGI AB, priority 2023, published 2026).

Assays:
[1] = system: differentiated L6-myotubes; assay: Glucose uptake screen (Biological example 1 of WO 2019/053427); type: cell-based; conditions: compound at 10 μM, activity relative to isoproterenol at 10 μM; for Emax at 10 µM: read-out: Biological example 1 of WO 2019/053427 (GU)
Experimental: (§1) Compounds described in publications referenced and incorporated herein were screened in accordance with the procedures outlined in Biological example 1 and Biological example 2 of WO 2019/053427.
L6-myoblasts were grown in Dulbecco's Modified Eagle's Medium (DMEM) containing 1 g/L glucose supplemented with 10% fetal bovine serum (FBS), 2 mM L-glutamine, 50 U/mL penicillin, […] streptomycin and 10 mM HEPES. Cells were plated at 1x 10^5 cells per mL in 24-well plates. After reaching 90% confluence the cells were grown in medium containing 2% FBS for 7 days where upon cells differentiated into myotubes. The differentiated L6-myotubes were serum-starved overnight in medium containing 0.5% fatty-acid free BSA and stimulated with Compound A at a final concentration of 1×10^−5 M in the presence of the selective β2-adrenergic receptor antagonist ICI-118551. After 1 h 40 min the cells were washed with warm, glucose free medium twice and another portion of agonist was added to the glucose free medium. After another 20 min of incubation the cells were exposed to 50 nM ^3H-2-deoxyglucose for 10 min before washed in ice cold glucose free medium three times and lysed in 400 µl/well 0.2 M NaOH for 1 h at 60° C. The cell lysate was mixed with 4 ml scintillation buffer (Emulsifier Safe, Perkin Elmer) and the radioactivity was detected in a P-counter (Tri-Carb 4810TR, Perkin Elmer).

[2] = system: differentiated L6-myotubes; assay: cAMP production relative to isoprenaline (Biological example 2 of WO 2019/053427); type: cell-based; conditions: compound at 10 μM, activity relative to isoproterenol at 10 μM; for Emax at 10 µM: 0.25 h
Source text: For example, the level of cAMP production induced by a given compound can be determined by reference to the amount induced by a defined concentration of that compound relative to that induced by the same concentration of a reference compound, such as isoprenaline, using techniques known to those skilled in the art (e.g. following the protocol as described in the biological examples provided in WO 2019/053427, i.e. in cells, such as differentiated L6-myotubes, having been stimulated with isoprenaline or the compound with a final concentration of 1×10^−5 M, for 15 min in stimulation buffer, such as HBSS supplemented with 1% BSA, 5 mM HEPES and 1 mM IBMX, at pH 7.4).
as §1

SMILES	Emax at 10 µM [1]	Emax at 10 µM [2]	Biological example 1 of WO 2019/053427 (GU) [1]	Biological example of WO 2019/053427 (cAMP) [2]
CO[C@H]1CC[C@H](CCC23CCC([C@@H](O)c4cccc(F)c4)(CC2)N3)CC1 [Compound 410, (S)-(m-fluorophenyl)(4-{2-[(1r,4R)-4-methoxycyclohexyl]ethyl}-7-azabicyclo[2.2.1]hept-1-yl)methanol]	50 to 75%	< 25%		
COC(=O)[C@H]1CC[C@H](CCC(C)(C)NC[C@H](O)c2cccc(F)c2)CC1 [Compound 350, methyl (1R,4r)-4-{3-[(R)-2-(m-fluorophenyl)-2-hydroxyethylamino]-3-methylbutyl}cyclohexanecarobxylate]	> 75%	< 25%		
CC1(C)CCC[C@H]([C@H](O)c2ccccc2F)N1 [Compound 177, (R)-[(R)-6,6-dimethyl-2-piperidyl](o-fluorophenyl)methanol]	50 to 75%	< 25%		
CC1(NC[C@H](O)c2cccc(F)c2)CC1 [Compound 82, (R)-1-(m-fluorophenyl)-2-(1-methylcyclopropylamino)-1-ethanol]	> 75%	< 25%		
CO[C@H]1CC[C@H](CCC23CCC([C@H](O)c4cccc(F)c4)(CC2)N3)CC1 [Compound 411, (R)-(m-fluorophenyl)(4-{2-[(1r,4S)-4-methoxycyclohexyl]ethyl}-7-azabicyclo[2.2.1]hept-1-yl)methanol]	> 75%	50 to 75%		
CC1(C)CC[C@H]([C@@H](O)c2ccccc2Cl)N1 [Compound 151, (S)-[(R)-5,5-dimethyl-2-pyrrolidinyl](o-chlorophenyl)methanol]		< 25%	− (less than 25%)	
CC1(C)CC[C@H]([C@@H](O)c2ccccc2Cl)N1 [Compound 152]			+++ (more than 75% of that of isoproterenol at 10 μM)	− (less than 25%)
CCCCNCC(O)c1cc(O)cc(O)c1 (stereo not drawn) [Compound 26, 5-[2-(butylamino)-1-hydroxyethyl]resorcinol]	50 to 75%	< 25%		
CC(C)(C)NC[C@H](O)c1cccc(O)c1F [Compound 86, (R)-2-(tert-butylamino)-1-(2-fluoro-3-hydroxyphenyl)-1-ethanol]	50 to 75%	50 to 75%		
CCCCNC[C@H](O)c1cccc(N)c1F [Compound 90, (R)-1-(3-amino-2-fluorophenyl)-2-(butylamino)-1-ethanol]	50 to 75%	< 25%		
COc1ccc(C[C@@H]2CC[C@H]([C@@H](O)c3cncc(F)c3)N2)cc1 [Compound 377, (S)-{(2R,5S)-5-[(p-methoxyphenyl)methyl]-2-pyrrolidinyl}(5-fluoro-3-pyridyl)methanol]	> 75%	< 25%		
CC(=O)N[C@H]1CC[C@H](C[C@@H]2CC[C@H]([C@@H](O)c3cccc(F)c3)N2)CC1 [Compound 486, N-[(1S,4r)-4-({(2S,5R)-5-[(S)-(m-fluorophenyl)hydroxymethyl]-2-pyrrolidinyl}methyl)cyclohexyl]acetamide]	50 to 75%	< 25%		
O[C@H](c1cccc(F)c1)[C@H]1CCC2(CC2)N1 [Compound 170, (R)-{(R)-4-aza-5-spiro[2.4]heptyl}(m-fluorophenyl)methanol]	50 to 75%	< 25%		
CS(=O)(=O)Nc1ccc(CC23CCC([C@H](O)c4cccc(F)c4)(CC2)N3)cc1 [Compound 475, (R)-(m-fluorophenyl)(4-{[p-(mesylamino)phenyl]methyl}-7-azabicyclo[2.2.1]hept-1-yl)methanol]	50 to 75%	< 25%		
CCCCNCC(O)c1ccc(F)c(N)c1F (stereo not drawn) [Compound 43, 1-(3-amino-2,4-difluorophenyl)-2-(butylamino)-1-ethanol]	> 75%	< 25%		
